Patent US20140315834A1 (Medicon Pharmaceuticals, Inc., priority 2012, published 2014)
Like-named read-outs stand apart in the source and are kept apart here.

Key:
[1] = test system: A549; format: in vivo, mice; settings: Lung A549 ot, ip
[2] = test system: A431; format: in vivo, mice; settings: Skin A431 id; Topical, 2 week
[3] = test system: AGS; format: in vivo, mice; settings: Gastric AGS sc, ip
[4] = format: in vivo, Lewis rats
[5] = in vivo; settings: mouse
[6] = test system: U87 glioblastoma cell line; test: 24-hour growth inhibition of glioblastoma cells; format: cell-based; settings: 24 h, read-out: 24-h 1c50
[7] = test system: U87 glioblastoma cells; test: Apoptosis by Annexin V-FITC / propidium iodide staining; format: cell-based; settings: 24 hours; PGIA 4 200 μM, PV 116 40 μM, alone or combined
Experimental: The potential synergy between PV and PGIA in inhibiting the growth of U87 glioblastoma cells was assessed by isobolographic analysis. After treatment with PV 116 or PGIA 4 alone or in combination for 24 hours, the following as determined: a) cell growth using the MTT assay (Promega, Madison, Wis.) and b) apoptosis by staining with Annexin V-FITC (Invitrogen) and propidium iodide 0.5 μg/ml and analyzing the fluorescence intensity by FACS caliber.

[8] = test system: U87; test: U87 glioma sc xenograft; settings: 20 mg/kg/d alone × 12 d, ip
[9] = test system: A549 human lung cancer cells; test: Aerosol PS in orthotopic GFP-A549 lung cancer model; format: in vivo, mice; settings: aerosol 50 mg/mL PS for 8 minutes, treatment group
Experimental: PS dissolved in ethanol was placed in the baffle and aerosolized with the ultrasonic atomizer. […] The air flow in the system used to deliver by inhalation the test drug to mice was controlled by an inlet air regulator and a vacuum pump which draws air from the system.
Mice received 50 mg/mL PS for 8 minutes. After one week of treatment, 1 million A549 human lung cancer cells stably expressing green fluorescence protein (GFP-A549) were injected into the left lung through a 5 mm incision) was made to the left side of the chest. GFP allows the detection and quantification of these cells. […] Inhalation treatment, suspended for 2 days post-surgery, continued for 6 weeks.

[10] = Drug levels after inhalation vs oral administration of PS; format: in vivo, mice
[11] = Pharmacokinetics of phospho-sulindac in wild type and Ces1c knockout mice; format: in vivo; settings: intraperitoneal and intravenous administration
From the text: This is reflected in the enhanced distribution of intact phospho-sulindac in various tissues.

[12] = test system: lung and pancreatic carcinoma (Lewis lung carcinoma); test: Efficacy in Ces1c knockout vs wild type mice; format: in vivo
[13] = Hydrolysis of PS in PLLA(10K)-PEG(2K) nanocarrier, control pharmacokinetic experiments; format: in vivo
Experimental: Protection of phospho-NSAIDs from hydrolysis by encapsulation in nanocarriers enhances their anti-cancer efficacy. For example, PS was formulated in a nanocarrier suitable for iv administration [PLLA(10K)-PEG(2K)]. […] Nude mice bearing subcutaneous A549 human lung cancer xenografts were then given intravenously PS 60 mg/kg/d ×2d/week and the equimolar dose of sulindac (40 mg/kg.) Sulindac was ineffective in inhibiting the growth of the xenografts whereas PS was (32% vs. 75%; p<0.012). […] In other words, the anticancer efficacy of PS is not the result of its being metabolized to sulindac (Xie G, et al., Brit J. Pharmacol. 2012; 165:2152-66; Wong et al., J Pharmacol Exp Ther. 2012; 340:422-32).

[14] = test system: A549 human lung cancer xenografts; test: A549 sc xenografts, i.v. PS in nanocarrier vs sulindac; format: in vivo, mice; settings: PS in nanocarrier, intravenously 60 mg/kg/d ×2d/week
[15] = Ferric chloride-induced carotid artery thrombus; format: in vivo, mice; settings: oral, 40% of MTD, injury one hour later; FIG. 32B
Experimental: In this model the carotid artery is briefly exposed to FeCl3 leading to thrombus formation at the site of the injury and occlusion of blood flow. […] Flow rate was then measured for 30 minutes (FIG. 32).

[16] = test system: platelets; test: Ex vivo platelet aggregometry, collagen agonist; format: in vivo, mice; settings: 40% MTD; collagen 1 μg/mL
Experimental: Platelet aggregation was studied using an Aggregometer (Chrono-Log, Havertown, Pa.). […] Maximum inhibition of aggregation occurred at 1 hour post treatment (FIG. 34).

[17] = test system: AGS human gastric xenografts; settings: nude mice; alone or with esterase inhibitor; cited from earlier work
[18] = test system: MDA; test: MDA breast sc xenograft; settings: 120 mg/kg/d × 22 d, ip
[19] = test system: HT-29; test: HT-29 colon sc xenograft; settings: Colon HT-29 sc; 120 mg/kg/d × 12 d, ip
[20] = test system: BT-20; test: BT-20 breast sc xenograft; settings: Breast BT-20 sc; 120 mg/kg/d × 28 d, ip
[21] = test system: HCT116; test: HCT116 colon xenograft; settings: Colon HCT116 sc; 100 mg/kg/d × 12 d, ip
[22] = test system: MCF7; test: MCF7 breast sc xenograft
[23] = Ulcerative colitis (IBD), DSS; settings: 300 mg/kg/d × 10 d, po

Compound: CCOP(=O)(OCC)OCCCCNC(=O)C(C)c1ccc(CC(C)C)cc1 (stereo not shown) [Compound 1, Phosphoric acid diethyl ester 4-[2-(4-isobutyl-phenyl)-propionylamino]-butyl ester]
- Reduction ([1]; 160 mg/kg/d × 6 week): 75%
- Reduction [2]: 46%
- Reduction ([3]; 160 mg/kg/d × 3 week): 34%
- Latency, sec Mean ± SEM ([4]; Dose 120 mg/kg ip, 30 minutes prior to testing): 23.42 ± 1.16 s
- MTD at 6 week ([5]; nude, ip): 160 mg/kg/day

Compound: CCOP(=O)(OCC)OCC(CNC(=O)C(C)c1ccc(CC(C)C)cc1)OP(=O)(OCC)OCC (stereo not shown) [Compound 4, Phospho-Ibuprofen Gylcerol Amide]
- IC50 [6]: 87 µM
- fold-increase of annexinV (+) cells [7]: 1.8 fold
- MTD at 12 days ([5]; nude, ip): 20 mg/kg/day
- MTD at 1 week ([5]; wt (wild type), po): > 600 mg/kg/day
- Reduction [8]: 52%

Compound: CCOP(=O)(OCC)OCCCCOC(=O)CC1=C(C)/C(=C/c2ccc([S+](C)[O-])cc2)c2ccc(F)cc21 (stereo not shown) [Compound 96, Phospho-Sulindac]
- death rate by the end of the study [9]: less than 10%
- PS levels in plasma ([10]; after inhalation or oral gavage): Undetectable
- level of intact PS in the lungs ([10]; inhalational 6.5 mg/kg body weight): > 20 nmol/g
- total drug levels (PS plus metabolites) in lungs, inhalation compared to oral ([10]; inhalational 6.5 mg/kg vs oral 150 mg/kg): significantly higher
- level of intact PS in the lungs ([10]; oral 150 mg/kg body weight): < 2 nmol/g
- less inactivation in Ces1c knockout mice vs wild type [11]: approximately 2 fold
- efficacy against Lewis lung carcinoma (LLC) in Ces −/− mice ([12]; 150 mg/kg, i.p., subcutaneous LLC tumors, FIG. 35): more efficacious
- more effective in inhibiting growth of lung and pancreatic carcinoma in Ces1c knockout vs wild type mice ([12]; mouse, in vivo): approximately 2 fold
- PS in nanocarrier hydrolyzed to sulindac [13]: < 6%
- inhibition of growth of xenografts [14]: 75%
- carotid artery blood flow following injury with FeCl3 [15]: flow rate is maintained
- time of maximum inhibition of aggregation post treatment [16]: 1 h
- analgesic effect ([4]; carboxylic esters, systemic, also topical in a hydrogel): effective
- Bleeding time (150 mg/kg orally, 1 hour after administration): 88 ± 7 s
- prolongation of the bleeding time (treated mice): no prolongation of the bleeding time
- inhibition of growth of AGS xenografts [17]: 28%

Compound: CCCC(CCC)C(=O)Oc1ccc(COP(=O)(OCC)OCC)cc1 [Compound 116, Phosphovalproic Acid]
- fold-increase of annexinV (+) cells [7]: 3.0 fold
- Reduction ([1]; 100 mg/kg/d × 6 week): 80%
- Reduction ([3]; 100 mg/kg/d × 3 week): 81%
- Reduction [18]: 63%
- Reduction [19]: 40%
- Reduction [20]: 37%

Compound: phospho-aspirin glycerol amide [Compound 194]
- Latency, sec Mean ± SEM ([4]; rat, in vivo, ip, 150 mg/kg): 19.92 ± 0.78 s
- Reduction [21]: 18%
- Reduction ([22]; 120 mg/kg/d × 29 d, po, prevention): 55%
- Reduction ([22]; 500 mg/kg/d × 12 d, ip, treatment): 80-100%
- Reduction [23]: 30-48%
